Assay results reported in US7989590B2, “Peptides that increase collagen or hyaluronic acid production” (Rohto Pharmaceutical Co., Ltd, priority 2005, dated 2011).
Read-outs that look alike come from different tables or passages of the source. Where a SMILES comes first, the peptide text is derived from it. Where no end group is shown, it is not given here.

How the values were obtained:
[1] = tested on: Fibroblasts derived from human normal skin (CRL-1836; ATCC); assay: Toxicity test: number of viable cells with Cell Counting Kit-8; details: for Number of Viable Cells (cells): cells after 72 hours of culture
Text: (§1) For the cells after the culture solution was collected in Example 6, the number of viable cells was counted in the same manner as in Example 4.
(§2) For the cells after the culture solution was collected in Example 10, the number of viable cells was counted as in the same manner in Example 4.
(§3) For the cells after the culture solution was collected in Example 14, the number of viable cells was counted in the same manner as in Example 4.
(§4) For the cells after the culture solution was collected in Example 17, the number of viable cells was counted in the same manner as in Example 4.
(§5) For the cells after the culture solution was collected in Example 20, the number of viable cells was counted in the same manner as in Example 4.

[2] = tested on: Fibroblasts derived from human normal skin (CRL-1836; ATCC)
Text: as §1, §2, §3, §4, §5

CC(C)C[C@H](N)C(=O)N[C@@H](CCC(=O)O)C(=O)N[C@@H](CCCCN)C(=O)N[C@@H](C)C(=O)O [LEKA, Leu-Glu-Lys-Ala] (H-LEKA-OH)
number of viable cells, result in words ([1]; 10 μg/ml, versus control): no decrease
Number of Viable Cells (cells) ([1]; peptide 10 μg/ml): 3.6 × 10^4 cells

CC(C)C[C@H](N)C(=O)N[C@@H](CCC(=O)O)C(=O)N[C@@H](Cc1c[nH]cn1)C(=O)N[C@@H](C)C(=O)O [LEHA, Leu-Glu-His-Ala] (H-LEHA-OH)
number of viable cells, result in words ([1]; LEH and LEHA peptides prepared from soy protein, stated in present tense): no significant decrease
Number of Viable Cells (cells) ([1]; peptide 10 μg/ml): 2.9 × 10^4 cells

CC(C)C[C@H](N)C(=O)N[C@@H](CCC(=O)O)C(=O)N[C@@H](Cc1c[nH]cn1)C(=O)O [LEH, Leu-Glu-His] (H-Leu-Glu-His-OH)
number of viable cells, result in words [2]: no significant decrease

CC(=O)N[C@@H](CC(C)C)C(=O)N[C@@H](CCC(=O)O)C(=O)N[C@@H](Cc1c[nH]cn1)C(=O)N[C@@H](C)C(=O)O [N-terminal-Acetylated-LEHA] (Ac-LEHA-OH)
Number of Viable Cells (cells) ([1]; peptide 10 μg/ml): 2.8 × 10^4 cells

CC(C)C[C@H](N)C(=O)N[C@@H](CC(=O)O)C(=O)N[C@@H](Cc1c[nH]cn1)C(=O)N[C@@H](C)C(=O)O [LDHA, Leu-Asp-His-Ala] (H-LDHA-OH)
number of viable cells, result in words ([1]; 1 μg/ml, versus control): no decrease
Number of Viable Cells (cells) ([1]; peptide 1 μg/ml): 3.3 × 10^4 cells

LEHAF [LEHAF, Leu-Glu-His-Ala-Phe]
number of viable cells, result in words ([1]; 1 or 3 μg/ml, versus control): no significant decrease
Number of Viable Cells (cells) ([1]; peptide 1 μg/ml): 3.0 × 10^4 cells
Number of Viable Cells (cells) ([1]; peptide 3 μg/ml): 3.0 × 10^4 cells

CC(C)C[C@H](N)C(=O)N[C@@H](CCC(=O)O)C(=O)N[C@@H](Cc1c[nH]cn1)C(=O)N[C@@H](C)C(N)=O [C-terminal-Amidated LEHA] (H-LEHA-NH2)
Number of Viable Cells (cells) ([1]; peptide 10 μg/ml): 2.6 × 10^4 cells
